Drawing on PubChem BioAssay (NCI), this text covers GI50 and TGI for 7 compounds.

Values joined by “and” are separate entries in the source; they are usually repeats but may differ in a detail not shown here. Equal entries are not always repeated.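 Values below derive from 48-hour exposures of cells grown in 96-well plates, with endpoints linearly interpolated between the two concentrations bracketing the appropriate inhibition level. At the GI50, growth is halved. At the TGI there is no net growth.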

Test systems include BT-549 breast; SR leukemia; HL-60(TB) leukemia; EKVX NSCLC; 786-0 renal; SF-295 CNS; HCT-15 colon; CCRF-CEM leukemia; A549 NSCLC; MOLT-4 leukemia.
What all share (test): NCI-60 cell line screen, 48 h

For the compound `CNCc1cccc2c1OCCOCCOCCNS(=O)(=O)c1ccc(cc1)-c1cnc(N)c(n1)C(=O)N2`, the GI50 with BT-549 breast is 1.27 µM; with SR leukemia, 0.346 µM; in the experiment with HL-60(TB) leukemia it was 0.452 µM; in the experiment with EKVX NSCLC, 2.83 µM; in the experiment with 786-0 renal, 1.22 µM; with SF-295 CNS, 1.76 µM. Besides, the GI50 with HCT-15 colon was 4.86 µM; in the experiment on CCRF-CEM leukemia, 0.532 µM; with A549 NSCLC, 1.58 µM; in the experiment with MOLT-4 leukemia, 0.557 µM. The TGI with BT-549 breast amounted to 8.14 µM; with SR leukemia it was 13.3 µM; in the experiment on HL-60(TB) leukemia, 1.89 µM; in the experiment with EKVX NSCLC, 11.2 µM; with 786-0 renal, 2.89 µM; in the experiment on SF-295 CNS, 3.39 µM. Besides, the TGI stood at 18.9 µM in the experiment on HCT-15 colon, 8.57 µM with CCRF-CEM leukemia, 4.82 µM with A549 NSCLC and 7.68 µM with MOLT-4 leukemia.

In the case of `CN(c1ccccc1)c1c2ccccc2nc2[nH]c3ccccc3c12`, the GI50 in the experiment on BT-549 breast is 4.36 µM; with SR leukemia it was 0.336 µM; with HL-60(TB) leukemia, 0.985 µM; with EKVX NSCLC, 5.04 µM; in the experiment on 786-0 renal, 1.76 µM; in the experiment with SF-295 CNS, 2.44 µM. Moreover, the GI50 in the experiment on HCT-15 colon was 2.73 µM; in the experiment on CCRF-CEM leukemia, 1.27 µM; with A549 NSCLC it was 0.943 µM; in the experiment with MOLT-4 leukemia, 0.841 µM. Moreover, the TGI is 13.1 µM in the experiment with BT-549 breast; above 100 µM in the experiment with SR leukemia; 6.25 µM in the experiment on HL-60(TB) leukemia; 21 µM in the experiment on EKVX NSCLC; 4.33 µM in the experiment on 786-0 renal; 5.76 µM in the experiment with SF-295 CNS. In addition, the TGI in the experiment with HCT-15 colon was above 31.9 µM; with CCRF-CEM leukemia, above 100 µM; with A549 NSCLC it was 3.27 µM; with MOLT-4 leukemia it was above 29.6 µM.

Regarding `Nc1cc(C(F)(F)F)c(-c2nc(N3CCOCC3)nc(N3CCOCC3)n2)cn1`, the GI50 in the experiment with BT-549 breast is 0.265 µM; in the experiment with SR leukemia it was 1.04 µM; in the experiment on HL-60(TB) leukemia, 0.381 µM; with EKVX NSCLC, 0.31 µM; in the experiment on 786-0 renal it was 0.482 µM; with SF-295 CNS it was 0.226 µM. The GI50 in the experiment with HCT-15 colon was 0.318 µM; with CCRF-CEM leukemia, 2.97 µM; with A549 NSCLC, 0.416 µM; with MOLT-4 leukemia, 0.426 µM. The TGI in the experiment with BT-549 breast is 3.84 µM; in the experiment on SR leukemia, 28.4 µM; in the experiment on HL-60(TB) leukemia, above 84.1 µM; in the experiment on EKVX NSCLC it was 5.02 µM; in the experiment with 786-0 renal, 6.33 µM; in the experiment with SF-295 CNS, 1.75 µM. Moreover, the TGI in the experiment with HCT-15 colon is above 56.1 µM; in the experiment with CCRF-CEM leukemia it was above 100 µM; with A549 NSCLC it was 8.62 µM; in the experiment with MOLT-4 leukemia, 39.8 µM.

Regarding `O=C1NC(c2ccccc2Cl)Nc2ccccc21` (stereo not given), the TGI in the experiment on BT-549 breast is above 100 µM; with SR leukemia it was above 100 µM; with HL-60(TB) leukemia, 16.4 µM; with EKVX NSCLC, above 100 µM; in the experiment on 786-0 renal it was above 100 µM; in the experiment on SF-295 CNS, above 72.3 µM. In addition, the TGI in the experiment with HCT-15 colon is above 100 µM; in the experiment on CCRF-CEM leukemia, above 81.5 µM; in the experiment on A549 NSCLC, above 100 µM; in the experiment with MOLT-4 leukemia it was above 94.4 µM.

For `O=C(CCN1CCOCC1)Nc1ccc(Cn2nnc3c2C(=O)c2nnn(Cc4ccc(NC(=O)CCN5CCOCC5)cc4)c2C3=O)cc1`, the GI50 was 2.87 µM in the experiment on BT-549 breast; 1.68 µM in the experiment with SR leukemia; 1.14 µM in the experiment on HL-60(TB) leukemia; above 100 µM in the experiment on EKVX NSCLC; above 100 µM with 786-0 renal; above 25.7 µM in the experiment on SF-295 CNS. For the same compound, the GI50 in the experiment with HCT-15 colon was above 100 µM; in the experiment with CCRF-CEM leukemia, 0.34 µM; with A549 NSCLC, above 100 µM; with MOLT-4 leukemia it was 0.763 µM. Also, the TGI is 8.77 µM in the experiment on BT-549 breast; 7.62 µM in the experiment on SR leukemia; 4.63 µM with HL-60(TB) leukemia; above 100 µM in the experiment on EKVX NSCLC; above 100 µM in the experiment on 786-0 renal; above 100 µM with SF-295 CNS. Further, the TGI with HCT-15 colon is above 100 µM; with CCRF-CEM leukemia, above 100 µM; with A549 NSCLC, above 100 µM; in the experiment with MOLT-4 leukemia, 3.48 µM.

For the compound `COc1nc(N)nc2nc[nH]c12`, the GI50 in the experiment with BT-549 breast was 580 µM; in the experiment on SR leukemia it was > 800 µM and 249 µM; in the experiment on HL-60(TB) leukemia it was 715 µM and 210 µM; in the experiment on EKVX NSCLC, 651 µM and > 759 µM; with 786-0 renal, 639 µM and 214 µM; with SF-295 CNS, above 881 µM. Besides, the GI50 with HCT-15 colon was above 800 µM; in the experiment on CCRF-CEM leukemia, 563 µM; with A549 NSCLC, > 800 µM and 713 µM; in the experiment with MOLT-4 leukemia, above 800 µM. The TGI was 500 µM and > 1000 µM in the experiment on BT-549 breast; 500 µM and > 800 µM and > 849 µM with SR leukemia; 500 µM and 800 µM and > 1000 µM with HL-60(TB) leukemia; > 387 µM and 800 µM and > 1000 µM with EKVX NSCLC; 500 µM and 800 µM and > 418 µM with 786-0 renal; above 1000 µM in the experiment on SF-295 CNS. In addition, the TGI in the experiment with HCT-15 colon is 500 µM and > 800 µM and > 1000 µM; in the experiment on CCRF-CEM leukemia, 407 µM and 800 µM and > 920 µM; in the experiment with A549 NSCLC, above 1000 µM; in the experiment on MOLT-4 leukemia, 500 µM and > 800 µM and > 1000 µM.

On to `COc1ccccc1CNCCCN1C(=O)c2ccc3c4c(ccc(c24)C1=O)C(=O)N(CCCNCc1ccccc1OC)C3=O`, for which the GI50 is 0.348 µM in the experiment on BT-549 breast; 0.264 µM with SR leukemia; 0.212 µM in the experiment on HL-60(TB) leukemia; 0.168 µM in the experiment with EKVX NSCLC; 0.257 µM in the experiment on 786-0 renal; 0.213 µM in the experiment with SF-295 CNS. The GI50 in the experiment with HCT-15 colon is 0.191 µM; in the experiment on CCRF-CEM leukemia, 0.194 µM; in the experiment with A549 NSCLC it was 0.2 µM; in the experiment on MOLT-4 leukemia it was 0.112 µM. Moreover, the TGI in the experiment on BT-549 breast came out at 0.895 µM; with SR leukemia, 0.928 µM; in the experiment on HL-60(TB) leukemia, 0.453 µM; in the experiment with EKVX NSCLC, 0.343 µM; with 786-0 renal it was 0.703 µM; in the experiment on SF-295 CNS it was 0.666 µM. The TGI with HCT-15 colon was 0.465 µM; in the experiment with CCRF-CEM leukemia, 2 µM; in the experiment on A549 NSCLC, 0.46 µM; with MOLT-4 leukemia, 0.455 µM.
